Test system: platelets
Assay: Platelet quality, apheresis platelets in 100% plasma, 15 μM S-59, INT-100 (~3.6 J/cm^2) or 340 nm LED 1x/2x/3x (~3.6/7.2/10.8 J/cm^2)
Format: cell-based
Description: Additional units were illuminated with the INT-100 device at ˜3.6 J/cm^2 for comparison or maintained as an untreated control. […] As shown in the following Tables 11-19, for platelet quality parameters, results were generally similar among the controls and INT-100 and 340 nm test samples, except for the 3×340 nm dosage for certain parameters.

Cc1oc2c(C)c3oc(=O)cc(C)c3cc2c1COCCN [S-59, 3-(2-aminoethoxymethyl)-2,5,9-trimethylfuro[3,2-g]chromen-7-one]
Adenosine triphosphate (ATP) (340 nm (1x), D3): 4.4 mmole/10^8 platelets
Glucose (340 nm (1x), D3): 13.49 mmol/L
LDH (340 nm (1x), D3): 12.1 LDH IU/10^11 platelets
Lactate (340 nm (1x), D3): 15.17 mmol/L
Platelet counts (340 nm (1x), D3): 1391 ×10^3 cells/μL
Platelet lysis (340 nm (1x), D3): 4.90%
pCO2 at 37° C. (340 nm (1x), D3): 54.4 mmHg
pH at 37° C. (340 nm (1x), D3): 6.84
pO2 at 37° C. (340 nm (1x), D3): 11.8 mmHg
Adenosine triphosphate (ATP) (340 nm (1x), D5): 4.0 mmole/10^8 platelets
Glucose (340 nm (1x), D5): 10.27 mmol/L
LDH (340 nm (1x), D5): 12.1 LDH IU/10^11 platelets
Lactate (340 nm (1x), D5): 19.81 mmol/L
Platelet counts (340 nm (1x), D5): 1338 ×10^3 cells/μL
Platelet lysis (340 nm (1x), D5): 4.43%
pCO2 at 37° C. (340 nm (1x), D5): 35.7 mmHg
pH at 37° C. (340 nm (1x), D5): 6.70
pO2 at 37° C. (340 nm (1x), D5): 22.5 mmHg
Adenosine triphosphate (ATP) (340 nm (1x), D7): 3.7 mmole/10^8 platelets
Glucose (340 nm (1x), D7): 8.32 mmol/L
LDH (340 nm (1x), D7): 13.1 LDH IU/10^11 platelets
Lactate (340 nm (1x), D7): 21.83 mmol/L
Platelet counts (340 nm (1x), D7): 1391 ×10^3 cells/μL
Platelet lysis (340 nm (1x), D7): 5.23%
pCO2 at 37° C. (340 nm (1x), D7): 34.3 mmHg
pH at 37° C. (340 nm (1x), D7): 6.58
pO2 at 37° C. (340 nm (1x), D7): 16.6 mmHg
Glucose (340 nm (1x), Post-UVA): 17.45 mmol/L
LDH (340 nm (1x), Post-UVA): 11.3 LDH IU/10^11 platelets
Lactate (340 nm (1x), Post-UVA): 9.05 mmol/L
Platelet counts (340 nm (1x), Post-UVA): 1366 ×10^3 cells/μL
Platelet lysis (340 nm (1x), Post-UVA): 4.48%
pCO2 at 37° C. (340 nm (1x), Post-UVA): 91.9 mmHg
pH at 37° C. (340 nm (1x), Post-UVA): 6.89
pO2 at 37° C. (340 nm (1x), Post-UVA): 14.3 mmHg
Adenosine triphosphate (ATP) (340 nm (1x), Pre-UVA): 4.0 mmole/10^8 platelets
LDH (340 nm (1x), Pre-UVA): 10.5 LDH IU/10^11 platelets
Platelet counts (340 nm (1x), Pre-UVA): 1453 ×10^3 cells/μL
Platelet lysis (340 nm (1x), Pre-UVA): 4.30%
pCO2 at 37° C. (340 nm (1x), Pre-UVA): 89.6 mmHg
pH at 37° C. (340 nm (1x), Pre-UVA): 6.90
pO2 at 37° C. (340 nm (1x), Pre-UVA): 41.8 mmHg
Adenosine triphosphate (ATP) (340 nm (2x), D3): 4.4 mmole/10^8 platelets
Glucose (340 nm (2x), D3): 13.63 mmol/L
LDH (340 nm (2x), D3): 12.1 LDH IU/10^11 platelets
Lactate (340 nm (2x), D3): 14.55 mmol/L
Platelet counts (340 nm (2x), D3): 1317 ×10^3 cells/μL
Platelet lysis (340 nm (2x), D3): 4.59%
pCO2 at 37° C. (340 nm (2x), D3): 54.5 mmHg
pH at 37° C. (340 nm (2x), D3): 6.86
pO2 at 37° C. (340 nm (2x), D3): 14.8 mmHg
Adenosine triphosphate (ATP) (340 nm (2x), D5): 4.1 mmole/10^8 platelets
Glucose (340 nm (2x), D5): 10.69 mmol/L
LDH (340 nm (2x), D5): 13.0 LDH IU/10^11 platelets
Lactate (340 nm (2x), D5): 19.06 mmol/L
Platelet counts (340 nm (2x), D5): 1370 ×10^3 cells/μL
Platelet lysis (340 nm (2x), D5): 4.92%
pCO2 at 37° C. (340 nm (2x), D5): 37.5 mmHg
pH at 37° C. (340 nm (2x), D5): 6.72
pO2 at 37° C. (340 nm (2x), D5): 15.3 mmHg
Adenosine triphosphate (ATP) (340 nm (2x), D7): 3.7 mmole/10^8 platelets
Glucose (340 nm (2x), D7): 8.34 mmol/L
LDH (340 nm (2x), D7): 13.2 LDH IU/10^11 platelets
Lactate (340 nm (2x), D7): 22.13 mmol/L
Platelet counts (340 nm (2x), D7): 1376 ×10^3 cells/μL
Platelet lysis (340 nm (2x), D7): 5.19%
pCO2 at 37° C. (340 nm (2x), D7): 36.4 mmHg
pH at 37° C. (340 nm (2x), D7): 6.56
pO2 at 37° C. (340 nm (2x), D7): 14.1 mmHg
Glucose (340 nm (2x), Post-UVA): 16.98 mmol/L
LDH (340 nm (2x), Post-UVA): 12.1 LDH IU/10^11 platelets
Lactate (340 nm (2x), Post-UVA): 8.77 mmol/L
Platelet counts (340 nm (2x), Post-UVA): 1301 ×10^3 cells/μL
Platelet lysis (340 nm (2x), Post-UVA): 4.50%
pCO2 at 37° C. (340 nm (2x), Post-UVA): 94.1 mmHg
pH at 37° C. (340 nm (2x), Post-UVA): 6.89
pO2 at 37° C. (340 nm (2x), Post-UVA): 14.2 mmHg
Adenosine triphosphate (ATP) (340 nm (2x), Pre-UVA): 3.9 mmole/10^8 platelets
LDH (340 nm (2x), Pre-UVA): 10.5 LDH IU/10^11 platelets
Platelet counts (340 nm (2x), Pre-UVA): 1448 ×10^3 cells/μL
Platelet lysis (340 nm (2x), Pre-UVA): 4.30%
pCO2 at 37° C. (340 nm (2x), Pre-UVA): 88.5 mmHg
pH at 37° C. (340 nm (2x), Pre-UVA): 6.90
pO2 at 37° C. (340 nm (2x), Pre-UVA): 45.9 mmHg
Adenosine triphosphate (ATP) (340 nm (3x), D3): 3.8 mmole/10^8 platelets
Glucose (340 nm (3x), D3): 10.87 mmol/L
LDH (340 nm (3x), D3): 11.6 LDH IU/10^11 platelets
Lactate (340 nm (3x), D3): 20.42 mmol/L
Platelet counts (340 nm (3x), D3): 1372 ×10^3 cells/μL
Platelet lysis (340 nm (3x), D3): 4.78%
pCO2 at 37° C. (340 nm (3x), D3): 62.5 mmHg
pH at 37° C. (340 nm (3x), D3): 6.56
pO2 at 37° C. (340 nm (3x), D3): 27.7 mmHg
Adenosine triphosphate (ATP) (340 nm (3x), D5): 0.4 mmole/10^8 platelets
Glucose (340 nm (3x), D5): 1.33 mmol/L
LDH (340 nm (3x), D5): 16.0 LDH IU/10^11 platelets
Lactate (340 nm (3x), D5): 36.09 mmol/L
Platelet counts (340 nm (3x), D5): 1550 ×10^3 cells/μL
Platelet lysis (340 nm (3x), D5): 6.62%
pCO2 at 37° C. (340 nm (3x), D5): 13.9 mmHg
pH at 37° C. (340 nm (3x), D5): 5.57
pO2 at 37° C. (340 nm (3x), D5): 159.5 mmHg
Adenosine triphosphate (ATP) (340 nm (3x), D7): −0.1 mmole/10^8 platelets
Glucose (340 nm (3x), D7): 0.43 mmol/L
LDH (340 nm (3x), D7): 33.7 LDH IU/10^11 platelets
Lactate (340 nm (3x), D7): 36.36 mmol/L
Platelet counts (340 nm (3x), D7): 1474 ×10^3 cells/μL
Platelet lysis (340 nm (3x), D7): 16.6%
pCO2 at 37° C. (340 nm (3x), D7): 4.4 mmHg
pH at 37° C. (340 nm (3x), D7): 5.49
pO2 at 37° C. (340 nm (3x), D7): 178.6 mmHg
Glucose (340 nm (3x), Post-UVA): 16.77 mmol/L
LDH (340 nm (3x), Post-UVA): 12.1 LDH IU/10^11 platelets
Lactate (340 nm (3x), Post-UVA): 9.48 mmol/L
Platelet counts (340 nm (3x), Post-UVA): 1322 ×10^3 cells/μL
Platelet lysis (340 nm (3x), Post-UVA): 4.77%
pCO2 at 37° C. (340 nm (3x), Post-UVA): 98.1 mmHg
pH at 37° C. (340 nm (3x), Post-UVA): 6.87
pO2 at 37° C. (340 nm (3x), Post-UVA): 19.7 mmHg
Adenosine triphosphate (ATP) (340 nm (3x), Pre-UVA): 3.6 mmole/10^8 platelets
LDH (340 nm (3x), Pre-UVA): 10.5 LDH IU/10^11 platelets
Platelet counts (340 nm (3x), Pre-UVA): 1452 ×10^3 cells/μL
Platelet lysis (340 nm (3x), Pre-UVA): 4.30%
pCO2 at 37° C. (340 nm (3x), Pre-UVA): 98.2 mmHg
pH at 37° C. (340 nm (3x), Pre-UVA): 6.87
pO2 at 37° C. (340 nm (3x), Pre-UVA): 90.9 mmHg
Adenosine triphosphate (ATP) (INT-100, D3): 4.3 mmole/10^8 platelets
Glucose (INT-100, D3): 13.11 mmol/L
LDH (INT-100, D3): 11.9 LDH IU/10^11 platelets
Lactate (INT-100, D3): 14.71 mmol/L
Platelet counts (INT-100, D3): 1395 ×10^3 cells/μL
Platelet lysis (INT-100, D3): 4.69%
pCO2 at 37° C. (INT-100, D3): 55.8 mmHg
pH at 37° C. (INT-100, D3): 6.82
pO2 at 37° C. (INT-100, D3): 18.9 mmHg
Adenosine triphosphate (ATP) (INT-100, D5): 4.0 mmole/10^8 platelets
Glucose (INT-100, D5): 10.26 mmol/L
LDH (INT-100, D5): 11.6 LDH IU/10^11 platelets
Lactate (INT-100, D5): 20.18 mmol/L
Platelet counts (INT-100, D5): 1400 ×10^3 cells/μL
Platelet lysis (INT-100, D5): 4.50%
pCO2 at 37° C. (INT-100, D5): 36.4 mmHg
pH at 37° C. (INT-100, D5): 6.67
pO2 at 37° C. (INT-100, D5): 20.1 mmHg
Adenosine triphosphate (ATP) (INT-100, D7): 3.5 mmole/10^8 platelets
Glucose (INT-100, D7): 8.19 mmol/L
LDH (INT-100, D7): 12.6 LDH IU/10^11 platelets
Lactate (INT-100, D7): 23.31 mmol/L
Platelet counts (INT-100, D7): 1439 ×10^3 cells/μL
Platelet lysis (INT-100, D7): 5.18%
pCO2 at 37° C. (INT-100, D7): 35.0 mmHg
pH at 37° C. (INT-100, D7): 6.54
pO2 at 37° C. (INT-100, D7): 19.7 mmHg
Glucose (INT-100, Post-UVA): 17.24 mmol/L
LDH (INT-100, Post-UVA): 11.5 LDH IU/10^11 platelets
Lactate (INT-100, Post-UVA): 8.85 mmol/L
Platelet counts (INT-100, Post-UVA): 1415 ×10^3 cells/μL
Platelet lysis (INT-100, Post-UVA): 4.74%
pCO2 at 37° C. (INT-100, Post-UVA): 91.4 mmHg
pH at 37° C. (INT-100, Post-UVA): 6.89
pO2 at 37° C. (INT-100, Post-UVA): 36.4 mmHg
Adenosine triphosphate (ATP) (INT-100, Pre-UVA): 3.9 mmole/10^8 platelets
LDH (INT-100, Pre-UVA): 10.3 LDH IU/10^11 platelets
Platelet counts (INT-100, Pre-UVA): 1481 ×10^3 cells/μL
Platelet lysis (INT-100, Pre-UVA): 4.30%
pCO2 at 37° C. (INT-100, Pre-UVA): 101.1 mmHg
pH at 37° C. (INT-100, Pre-UVA): 6.87
pO2 at 37° C. (INT-100, Pre-UVA): 98.4 mmHg
